{"source": "patent US20050267212A1", "about": "“Omega-3 fatty acids in the treatment of depression” (priority 1997, published 2005)", "origin": "cited, not measured here", "target": "T1, cyclooxygenase-2 (Homo sapiens, UniProt P35354)", "T1 sequence (P35354 18-604)": "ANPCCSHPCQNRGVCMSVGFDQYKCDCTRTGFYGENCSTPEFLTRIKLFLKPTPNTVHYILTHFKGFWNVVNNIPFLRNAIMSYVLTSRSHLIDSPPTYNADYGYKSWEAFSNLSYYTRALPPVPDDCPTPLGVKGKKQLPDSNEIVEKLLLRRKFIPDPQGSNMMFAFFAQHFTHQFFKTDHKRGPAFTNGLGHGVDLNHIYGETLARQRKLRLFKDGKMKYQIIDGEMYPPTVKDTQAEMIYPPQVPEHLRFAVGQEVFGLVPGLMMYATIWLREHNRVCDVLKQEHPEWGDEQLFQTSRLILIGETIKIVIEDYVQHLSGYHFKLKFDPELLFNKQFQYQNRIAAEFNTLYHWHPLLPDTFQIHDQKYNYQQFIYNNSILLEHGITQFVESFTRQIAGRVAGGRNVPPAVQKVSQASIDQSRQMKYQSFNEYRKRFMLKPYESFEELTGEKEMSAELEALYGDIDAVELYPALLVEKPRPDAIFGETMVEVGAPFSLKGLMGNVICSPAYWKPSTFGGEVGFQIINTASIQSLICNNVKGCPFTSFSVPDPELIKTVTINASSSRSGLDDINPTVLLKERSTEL", "conditions": "cultured human mast cells", "data": [{"smiles": "CC/C=C\\C/C=C\\C/C=C\\C/C=C\\C/C=C\\CCCC(=O)O", "note": "[EPA, eicosapentanoic acid]", "values": [{"measurement": "effect on cyclooxygenase-2", "value": "direct inhibition"}]}]}
